Measured values published in patent US20250346556A1, “IMPROVEMENTS IN OR RELATING TO ORGANIC COMPOUNDS” (Givaudan SA, priority 2019, published 2025).

What was measured:
Assay type in all cases: in vivo
[1] = Taste evaluation, comparison with further derivatives, by 5 trained panellists; settings: 20 ppm in aqueous NaCl solution (0.5% by weight); compared with 20 ppm compound Ia
Procedure: An aqueous NaCl solution (0.5% by weight) was prepared. To this base was added: • a) 20 ppm of the compound Ia (sample 7a); • b) 20 ppm of the compound Ib (sample 7b); • c) 20 ppm of the compound Ic (sample 7c).
The tastes of the three samples 7a, 7b and 7c have been evaluated by 5 trained panellists.

[2] = Taste evaluation, comparison with MSG, by 5 trained panellists
Procedure: An aqueous NaCl solution (0.5% by weight) was prepared. To this base was added: • a) 30 ppm of the compound Ia (sample 6a); • b) 200 ppm of MSG (sample 6b, benchmark).
The tastes of the two samples 6a and 6b have been evaluated by 5 trained panellists. They were asked to rate the intensity of sample 6a as difference to sample 6b and to describe the overall effect. Typically, the following descriptors are used to describe the effect: umami, salty, bitter, overall sweet.

[3] = Taste evaluation of amide ester analogues by four experienced tasters; settings: 20 ppm in aqueous NaCl (0.5% by weight) and MSG (0.05% by weight)
Procedure: An aqueous solution of NaCl (0.5% by weight) and MSG (0.05% by weight) was prepared. To this base was added: • a) 20 ppm of the mixture of the compound (Id+Ie) in a ratio 1:2 (sample 8a); • b) 20 ppm of the compound If (sample 8b).
A group of four experienced tasters compared the samples 8a and 8b with the pure base.

## C/C=C(\C)C(=O)NCCCCNC(=O)/C=C/c1ccc(OC)cc1 [compound Ib, (E)-N-(4-((E)-3-(4-methoxyphenyl)acrylamido)butyl)-2-methylbut-2-enamide]
[1]
  taste description in comparison to sample 7a: more umami, stronger and more lingering, more sweet, but having an off note, animalic, floral sweet

## C/C=C(\C)C(=O)NCCCCNC(=O)C=Cc1ccccc1 [compound Ia, (E)-N-(4-cinnamamidobutyl)-2-methylbut-2-enamide]
[2]; 30 ppm in 0.5% NaCl versus 200 ppm MSG (sample 6b)
  overall preference: preferred over sample 6b
[2]; 30 ppm in 0.5% NaCl versus 200 ppm MSG (sample 6b, benchmark)
  umami on bitter level versus benchmark: a little higher than benchmark
[2]; 30 ppm in aqueous NaCl solution (0.5% by weight), 5 trained panellists
  taste description: umami, brothy and longlasting

## C/C=C(\C)C(=O)NCCCCNC(=O)c1ccc(OC)cc1 [compound Ic, (E)-4-methoxy-N-(4-(2-methylbut-2-enamido)butyl)benzamide]
[1]
  taste description in comparison to sample 7a: more umami and cleaner umami than sample 7a

## C/C=C(\C)C(=O)NCCCCOC(=O)C=Cc1ccccc1 [compound If, 4-((E)-2-methylbut-2-enamido)butyl cinnamate]
[3]
  additional taste description: a pleasant taste experience
[3]; four tasters, unanimous
  umami compared with the pure base: more umami than the base
